Laboratory results from PMC9289666, “Highly Parallelized, Multicolor Optogenetic Recordings of Cellular Activity for Therapeutic Discovery Applications in Ion Channels and Disease-Associated Excitable Cells” (Frontiers in Molecular Neuroscience, 2022).
Like-named read-outs stand apart in the source and are kept apart here.

How the values were obtained:
[1] = target: T1, human Nav.1.7 (Homo sapiens, UniProt Q15858); assay: Nav1.7 spiking HEK assay on Swarm; type: cell-based
T1 construct: expressed in transfected cells

[2] = test system: Nav1.5; conditions: cited from earlier work
[3] = normalized mean spike amplitude score, Prestwick library compounds
[4] = read-out: Nav1.5 Ionworks (IC50), automated patch clamp, literature reported, ref Harmer et al., 2011
[5] = compounds at 1 μM, cutoff 0.5 mean spike amplitude

T1 sequence (Q15858 whole entry): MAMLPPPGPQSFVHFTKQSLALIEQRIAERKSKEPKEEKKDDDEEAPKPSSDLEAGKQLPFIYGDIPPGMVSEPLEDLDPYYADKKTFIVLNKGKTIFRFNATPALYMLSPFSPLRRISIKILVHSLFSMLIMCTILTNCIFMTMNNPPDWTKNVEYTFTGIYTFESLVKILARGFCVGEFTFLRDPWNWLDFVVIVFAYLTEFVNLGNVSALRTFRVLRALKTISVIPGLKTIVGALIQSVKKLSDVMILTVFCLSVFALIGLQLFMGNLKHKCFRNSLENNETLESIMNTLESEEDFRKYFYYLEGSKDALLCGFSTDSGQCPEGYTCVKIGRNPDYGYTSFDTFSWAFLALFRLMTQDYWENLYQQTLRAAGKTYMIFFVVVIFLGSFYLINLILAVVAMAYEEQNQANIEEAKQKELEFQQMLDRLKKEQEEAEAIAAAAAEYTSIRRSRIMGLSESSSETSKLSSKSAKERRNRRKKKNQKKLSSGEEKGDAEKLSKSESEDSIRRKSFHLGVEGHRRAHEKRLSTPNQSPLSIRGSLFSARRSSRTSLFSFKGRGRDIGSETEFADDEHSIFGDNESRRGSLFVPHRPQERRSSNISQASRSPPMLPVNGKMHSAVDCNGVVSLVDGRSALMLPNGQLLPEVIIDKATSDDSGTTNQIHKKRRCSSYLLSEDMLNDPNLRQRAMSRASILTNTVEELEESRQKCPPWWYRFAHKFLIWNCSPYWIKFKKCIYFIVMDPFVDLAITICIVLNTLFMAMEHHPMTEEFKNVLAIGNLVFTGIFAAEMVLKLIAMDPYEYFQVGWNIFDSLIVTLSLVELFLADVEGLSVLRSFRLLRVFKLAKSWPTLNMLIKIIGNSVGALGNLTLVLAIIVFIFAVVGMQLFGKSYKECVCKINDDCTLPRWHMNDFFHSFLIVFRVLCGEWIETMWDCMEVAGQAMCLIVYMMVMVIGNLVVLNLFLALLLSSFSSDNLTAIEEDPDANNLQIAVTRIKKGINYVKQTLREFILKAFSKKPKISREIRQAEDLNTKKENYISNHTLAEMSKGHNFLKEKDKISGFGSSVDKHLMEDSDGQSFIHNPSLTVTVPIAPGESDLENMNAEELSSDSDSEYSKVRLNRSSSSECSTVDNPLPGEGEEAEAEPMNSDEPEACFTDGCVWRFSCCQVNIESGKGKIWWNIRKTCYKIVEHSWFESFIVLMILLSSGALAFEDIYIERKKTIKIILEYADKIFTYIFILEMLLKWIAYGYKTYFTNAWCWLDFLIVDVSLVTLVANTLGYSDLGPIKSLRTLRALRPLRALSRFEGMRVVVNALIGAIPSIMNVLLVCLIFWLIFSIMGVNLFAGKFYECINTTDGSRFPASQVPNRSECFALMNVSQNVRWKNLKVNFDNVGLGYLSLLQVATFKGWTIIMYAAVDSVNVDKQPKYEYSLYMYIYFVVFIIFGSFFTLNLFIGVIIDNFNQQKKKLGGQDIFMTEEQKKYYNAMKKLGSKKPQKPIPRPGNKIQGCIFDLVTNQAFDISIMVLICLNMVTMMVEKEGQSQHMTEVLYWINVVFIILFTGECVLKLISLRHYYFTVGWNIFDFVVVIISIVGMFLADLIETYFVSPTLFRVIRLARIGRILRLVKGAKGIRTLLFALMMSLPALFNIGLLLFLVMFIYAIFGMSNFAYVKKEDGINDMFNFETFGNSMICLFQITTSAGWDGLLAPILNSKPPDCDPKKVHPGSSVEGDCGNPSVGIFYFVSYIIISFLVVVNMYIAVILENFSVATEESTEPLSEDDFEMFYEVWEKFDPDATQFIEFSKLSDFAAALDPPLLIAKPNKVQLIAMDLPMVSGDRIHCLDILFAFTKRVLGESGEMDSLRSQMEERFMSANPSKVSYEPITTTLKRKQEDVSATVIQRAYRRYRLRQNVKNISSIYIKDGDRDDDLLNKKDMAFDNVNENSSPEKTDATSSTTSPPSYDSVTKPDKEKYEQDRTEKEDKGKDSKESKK

SMILES | Nav1.7 Swarm (score at 3 µM) [1, 3] | IC50 [2, 4] | further results
Fc1ccc(C(c2ccc(F)cc2)N2CCN(C/C=C/c3ccccc3)CC2)cc1 [Flunarizine] | 0.16 | 2.6 µM | 
CNCCC(Oc1ccc(C(F)(F)F)cc1)c1ccccc1 (stereo not shown) [Fluoxetine] |  | 4.9 µM | Nav1.7 Swarm (score at 3 µM) [1]: 0.64
CC(C)COCC(CN(Cc1ccccc1)c1ccccc1)N1CCCC1 (stereo not shown) [Bepridil] |  |  | IC50 [2]: 1.9 µM
OCCN1CCN(CCCN2c3ccccc3Sc3ccc(C(F)(F)F)cc32)CC1 [Fluphenazine] | 0.31 | 8 µM | 
CC(C)NC[C@@H](O)COc1cccc2ccccc12 [(R)-Propranolol] | 0.63 |  | IC50 [2]: 7.5 µM
CC12CC3CC(C)(C1)CC(N)(C3)C2 [Memantine] | 0.98 | 92.6 µM | 
O=C1Cc2cc(CCN3CCN(c4nsc5ccccc45)CC3)c(Cl)cc2N1 [Ziprasidone] | 1.07 | 170 µM | 
CN(C)CCCN1c2ccccc2CCc2ccc(Cl)cc21 [Clomipramine] |  | 2.6 µM | Hit identification in Prestwick Chemical Library pilot screen [1]: hits; Nav1.7 Swarm (score at 3 µM) [1]: 0.20
C=C1C[C@@H]2[C@H](CC[C@]3(C)C(=O)CC[C@@H]23)[C@@]2(C)C=CC(=O)C=C12 [Exemestane] | 0.90 | 71.3 µM | 
CCN(CC)CCOC(=O)c1ccc(N)cc1 [Procaine] | 1.07 | 84.6 µM | 
Nc1c(Br)cc(Br)cc1CN[C@H]1CC[C@H](O)CC1 [Ambroxol] | 0.80 | 15.2 µM | 
COc1ccc(C(CN(C)C)C2(O)CCCCC2)cc1 (stereo not shown) [Venlafaxine] | 0.95 | 90.1 µM | 
CN[C@H]1CC[C@@H](c2ccc(Cl)c(Cl)c2)c2ccccc21 [Sertraline] |  |  | Nav1.7 Swarm (score at 3 µM) [1]: 0.87
CC#C[C@]1(O)CC[C@H]2[C@@H]3CCC4=CC(=O)CCC4=C3[C@@H](c3ccc(N(C)C)cc3)C[C@@]21C [Mifepristone] | 0.97 | 25.8 µM | 
CCOC(=O)N1CCC(=C2c3ccc(Cl)cc3CCc3cccnc32)CC1 [Loratadine] | 0.62 |  | 
Cc1cccc(C)c1NC(=O)C1CCCCN1C (stereo not shown) [Mepivacaine] | 0.96 | 81.4 µM | 
Cc1cc2c(s1)Nc1ccccc1N=C2N1CCN(C)CC1 [Olanzapine] |  |  | Nav1.7 Swarm (score at 3 µM) [1]: 1.09

SMILES | Nav1.7 Swarm (score at 3 µM) [1, 3] | IC50 [2, 4] | further results
CCN(CC)CC(=O)Nc1c(C)cccc1C [Lidocaine] |  |  | Nav1.7 Swarm (score at 3 µM) [1]: 0.91; IC50 ([1]; 8 mM bath [K+], mean spike amplitude across all test pulses): 15 µM
CCN(CC)CCNC(=O)c1ccc(N)cc1 [Procainamide] | 1.00 |  | 
CN(C)C(=O)C(CCN1CCC(O)(c2ccc(Cl)cc2)CC1)(c1ccccc1)c1ccccc1 [Loperamide] |  |  | Nav1.7 Swarm (score at 3 µM) [1]: 0.04; IC50 [2]: 2.9 µM
CN(C)CCC=C1c2ccccc2COc2ccccc21 [doxepin] |  |  | Hit identification in Prestwick Chemical Library pilot screen [1, 5]: hits
CC(CN(C)C)CN1c2ccccc2CCc2ccccc21 (stereo not shown) [Trimipramine] | 0.37 | 2.7 µM | Hit identification in Prestwick Chemical Library pilot screen [1, 5]: hits
CCc1nn(CCCN2CCN(c3cccc(Cl)c3)CC2)c(=O)n1CCOc1ccccc1 [nefazodone] |  |  | Hit identification in Prestwick Chemical Library pilot screen [1, 5]: hits
CN(C)CCCN1c2ccccc2Sc2ccc(Cl)cc21 [Chlorpromazine] | 0.32 | 2.8 µM | 
CC(=O)N1CCN(c2ccc(OCC3COC(Cn4ccnc4)(c4ccc(Cl)cc4Cl)O3)cc2)CC1 (stereo not shown) [Ketoconazole] | 0.96 | 44.9 µM | 
COC(=O)C1=C(C#N)NC(C)=C(C(=O)OC(C)C)C1c1cccc([N+](=O)[O-])c1 (stereo not shown) [Nilvadipine] | 0.24 | 2.3 µM | 
CNCCCN1c2ccccc2CCc2ccccc21 [Desipramine] | 0.38 | 2.4 µM | Hit identification in Prestwick Chemical Library pilot screen [1, 5]: hits
CN1CCN(C2=Nc3cc(Cl)ccc3Nc3ccccc32)CC1 [Clozapine] | 0.74 | 11.6 µM | 
CN1CCC(=C2c3ccccc3C=Cc3ccccc32)CC1 [Cyproheptadine] | 0.44 | 6.1 µM | 
OCCOCCN1CCN(C(c2ccccc2)c2ccc(Cl)cc2)CC1 (stereo not shown) [Hydroxyzine] | 0.56 | 32.8 µM | 
CNCCC=C1c2ccccc2CCc2ccccc21 [Nortriptyline] | 0.19 | 2 µM | Hit identification in Prestwick Chemical Library pilot screen [1, 5]: hits
COc1c(N2C[C@@H]3CCCN[C@@H]3C2)c(F)cc2c(=O)c(C(=O)O)cn(C3CC3)c12 [Moxifloxacin] | 1.06 |  | 
O=C1CC2(CCCC2)CC(=O)N1CCCCN1CCN(c2ncccn2)CC1 [Buspirone] | 0.97 | 125 µM | 
CC(Oc1c(Cl)cccc1Cl)C1=NCCN1 (stereo not shown) [Lofexidine] | 0.88 | 27.2 µM | 
